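The compound was tested at five concentrations on cells cultured in 96-well plates, with a 48-hour exposure period. GI50 is the concentration that inhibits growth by half.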 Activity calls are given as the source filed them. Rule as the data show it: active = GI50 up to about 1.1 µM and inactive = higher.
What was measured:
Assay in all cases: NCI-60 cell line screen, 48 h
MCF7 = system: MCF7
HL-60 = system: HL-60
Malme-3M = system: Malme-3M
K562 = system: K562
OVCAR-8 = system: OVCAR-8
RPMI-8226 = system: RPMI-8226
SF-539 = system: SF-539
SK-MEL-28 = system: SK-MEL-28
SNB-75 = system: SNB-75
HCC 2998 = system: HCC 2998
OVCAR-3 = system: OVCAR-3
SNB-19 = system: SNB-19
OVCAR-5 = system: OVCAR-5
COLO 205 = system: COLO 205
UACC-62 = system: UACC-62
HT-29 = system: HT-29
UO-31 = system: UO-31
HOP-92 = system: HOP-92
HOP-62 = system: HOP-62
UACC-257 = system: UACC-257

Measured: GI50

C=CC[N+]12CN3CN(CN(C3)C1)C2
inactive: MCF7 30.1 µM | HL-60 35.3 µM | Malme-3M 18.7 µM | K562 19.2 µM | OVCAR-8 24 µM | RPMI-8226 4.14 µM | SF-539 16.9 µM | SK-MEL-28 21.3 µM | SNB-75 25.1 µM | HCC 2998 24 µM | OVCAR-3 43.9 µM | SNB-19 40 µM | OVCAR-5 23.2 µM | COLO 205 25.9 µM | UACC-62 27.4 µM | HT-29 17.9 µM | UO-31 21 µM | HOP-92 23.8 µM | HOP-62 > 100 µM | UACC-257 24.5 µM

C(=C/c1nc2ccccc2o1)/c1ccc2c(c1)OCO2
inactive: MCF7 14.5 µM | HL-60 16.8 µM | Malme-3M 27.3 µM | K562 5.22 µM | OVCAR-8 29.7 µM | RPMI-8226 26.4 µM | SF-539 16.6 µM | SK-MEL-28 24.9 µM | SNB-75 21.1 µM | HCC 2998 6.32 µM | OVCAR-3 12.1 µM | SNB-19 16.1 µM | OVCAR-5 > 36.6 µM | COLO 205 40.7 µM | UACC-62 2.62 µM | HT-29 12.8 µM | UO-31 17 µM | HOP-92 13.2 µM | HOP-62 16.2 µM | UACC-257 12.7 µM

COc1ccc(OCC(C)(C)O)cc1
inactive: MCF7 > 45.3 µM | HL-60 > 100 µM | Malme-3M > 100 µM | K562 > 100 µM | OVCAR-8 > 100 µM | RPMI-8226 > 100 µM | SF-539 > 100 µM | SK-MEL-28 > 100 µM | SNB-75 > 47 µM | HCC 2998 > 100 µM | OVCAR-3 > 100 µM | SNB-19 > 100 µM | OVCAR-5 > 100 µM | COLO 205 > 100 µM | UACC-62 > 100 µM | HT-29 > 100 µM | UO-31 > 100 µM | HOP-92 > 100 µM | HOP-62 > 100 µM | UACC-257 > 100 µM

Cc1ccc(N2Cc3c(ccc4ccccc34)OP2(=O)Oc2ccc(Cl)c(C)c2)cc1 (stereo not given)
inactive: MCF7 18.4 µM | HL-60 > 100 µM | Malme-3M > 100 µM | K562 > 100 µM | OVCAR-8 > 100 µM | RPMI-8226 10 µM | SF-539 > 100 µM | SK-MEL-28 > 100 µM | SNB-75 > 100 µM | HCC 2998 > 100 µM | OVCAR-3 > 31.6 µM | SNB-19 > 100 µM | OVCAR-5 > 100 µM | COLO 205 > 100 µM | UACC-62 > 100 µM | HT-29 > 95.1 µM | UO-31 20.3 µM | HOP-92 50 µM | HOP-62 > 100 µM | UACC-257 > 100 µM

Source: ChEMBL document CHEMBL1201862, “PubChem BioAssay data set” (2004)
